Columns and labels:
[1] = BAP1 versus UCH-L1 deubiquitinase inhibition – biochemical, ubiquitin-rhodamine110-glycine substrate, selectivity assay, dose response (AID 1134); details: recombinant BAP1, ubiquitin-rhodamine110 cleavage fluorescence kinetic; measured here: UCH-L1 counter-screen IC50
[2] = target: Ubiquitin carboxyl-terminal hydrolase BAP1 (Homo sapiens) (UniProt Q92560); test: as above; details: recombinant BAP1, ubiquitin-rhodamine110 cleavage fluorescence kinetic
Chain of Ubiquitin carboxyl-terminal hydrolase BAP1 (Homo sapiens) (Q92560 whole entry, looked up): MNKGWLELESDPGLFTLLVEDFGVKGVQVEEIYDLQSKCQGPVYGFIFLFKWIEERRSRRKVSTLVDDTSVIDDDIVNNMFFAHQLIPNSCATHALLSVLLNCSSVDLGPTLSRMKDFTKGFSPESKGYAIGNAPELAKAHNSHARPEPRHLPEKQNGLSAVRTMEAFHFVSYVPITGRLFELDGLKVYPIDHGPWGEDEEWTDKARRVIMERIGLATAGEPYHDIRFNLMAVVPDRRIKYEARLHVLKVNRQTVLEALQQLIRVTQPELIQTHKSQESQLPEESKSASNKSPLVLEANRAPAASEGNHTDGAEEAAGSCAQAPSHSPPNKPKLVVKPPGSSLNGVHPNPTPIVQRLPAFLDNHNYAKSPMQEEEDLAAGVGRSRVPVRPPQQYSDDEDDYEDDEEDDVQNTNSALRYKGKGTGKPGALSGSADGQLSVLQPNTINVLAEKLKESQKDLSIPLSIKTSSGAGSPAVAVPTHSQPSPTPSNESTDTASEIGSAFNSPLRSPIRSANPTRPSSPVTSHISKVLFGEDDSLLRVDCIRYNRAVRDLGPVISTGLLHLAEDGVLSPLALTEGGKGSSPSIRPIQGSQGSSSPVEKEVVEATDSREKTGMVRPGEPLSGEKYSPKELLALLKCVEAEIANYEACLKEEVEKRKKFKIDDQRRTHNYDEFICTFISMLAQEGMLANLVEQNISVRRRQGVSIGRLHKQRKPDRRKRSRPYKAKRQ

Structure (SMILES)	IC50 [1]	IC50 [2]
Cc1sc(NC(=O)CSc2nnc(-c3ccc(Cl)cc3)o2)c(C#N)c1-c1ccc(F)cc1	21.2 µM	0.81 µM
O=C(CSc1nnc(-c2ccc(O)cc2)o1)Nc1cc(-c2ccc(F)cc2)[nH]n1	–	14.4 µM
Cc1ccc(-c2c(C)sc(NC(=O)CSc3nnc(-c4ccc(F)cc4)o3)c2C#N)cc1C	26 µM	3.95 µM
Cc1sc(NC(=O)CSc2nnc(-c3ccc(O)cc3)o2)c(C#N)c1-c1ccc(CC(C)C)cc1	–	4.77 µM
Cc1ccc(-c2c(C)sc(NC(=O)CSc3nnc(-c4ccc(Cl)cc4)o3)c2C#N)cc1C	7.55 µM	5.19 µM
Cc1sc(NC(=O)CSc2nnc(Cc3ccc(Cl)cc3)o2)c(C#N)c1-c1ccc(F)cc1	–	6.22 µM
Cc1sc(NC(=O)CSc2nnc(-c3ccncc3)o2)c(C#N)c1-c1ccc(F)cc1	–	8.8 µM
COC(=O)c1c(NC(=O)CSc2nnc(-c3ccc(O)cc3)o2)sc(C)c1-c1ccc(F)cc1	–	6.07 µM
Cc1sc(NC(=O)CSc2nccc(-c3ccc(Cl)cc3)n2)c(C#N)c1-c1ccc(F)cc1	47.6 µM	1.58 µM
Cc1sc(NC(=O)CSc2n[nH]c(-c3ccc(O)cc3)n2)c(C#N)c1C	–	31.1 µM
Cc1sc(NC(=O)CSc2nnc(-c3ccc(Cl)nc3)o2)c(C#N)c1-c1ccc(F)cc1	13.6 µM	2.81 µM
Cc1sc(NC(=O)CSc2nnc(-c3ccc(O)cc3O)o2)c(C#N)c1-c1ccc(F)cc1	–	5.62 µM
COC(=O)c1c(NC(=O)CSc2nnc(-c3ccc(Cl)cc3)o2)sc(C)c1-c1ccc(F)cc1	23.6 µM	3.59 µM
Cc1sc(NC(=O)CSc2nnc(-c3ccc(O)cc3)o2)c(C#N)c1-c1ccc(F)cc1	–	15.3 µM
Cc1sc(NC(=O)CSc2nnc(-c3ccc(Br)cc3)o2)c(C#N)c1-c1ccc(F)cc1	16.9 µM	0.9 µM
Cc1sc(NC(=O)CSc2nnc(-c3cccnc3)o2)c(C#N)c1-c1ccc(F)cc1	–	35.4 µM

Structure (SMILES)	IC50 [1]	IC50 [2]
Cc1sc(NC(=O)CSc2nnc(-c3ccc(N)cc3)o2)c(C#N)c1-c1ccc(F)cc1	–	40.1 µM
Cc1sc(NC(=O)CSc2nnc(-c3ccc(O)cc3)o2)c(C#N)c1-c1ccc(Cl)cc1Cl	–	3.7 µM
Cc1sc(NC(=O)CSc2nnc(-c3ccc(Cl)cc3)o2)c(C#N)c1-c1ccc(Cl)cc1Cl	13.8 µM	1.15 µM
Cc1ccccc1Nc1nnc(SCC(=O)Nc2sc(C)c(-c3ccc(F)cc3)c2C#N)s1	–	8.8 µM
Cc1sc(NC(=O)CSc2nnc(-c3ccc(Cl)cc3)o2)c(C#N)c1-c1ccccc1	13.7 µM	1.88 µM
Cc1sc(NC(=O)CSc2nnc(-c3ccc(I)cc3)o2)c(C#N)c1-c1ccc(F)cc1	> 100 µM	2.76 µM
Cc1sc(NC(=O)CSc2n[nH]c(-c3ccc(O)cc3)n2)c(C#N)c1-c1ccc(F)cc1	10.1 µM	2.19 µM
Cc1sc(NC(=O)CSc2nnc(-c3ccc(Cl)cc3)o2)c(C#N)c1-c1ccc(CC(C)C)cc1	20.6 µM	3.73 µM
O=C(CSc1nnc(-c2ccc(Cl)cc2)o1)Nc1cc(-c2ccc(F)cc2)[nH]n1	51.9 µM	0.86 µM
Cc1sc(NC(=O)CSc2nccc(-c3ccc(Cl)cc3)n2)c(C#N)c1C	–	4.82 µM
Cc1ccccc1Nc1nnc(SCC(=O)NCc2ccco2)s1	–	17.4 µM
O=C(NCc1ccco1)c1cc2nc(-c3ccc4c(c3)OCO4)cc(C(F)(F)F)n2n1	–	15.4 µM
Cc1sc(NC(=O)CSc2nnc(-c3ccc(Cl)cc3)o2)c(C(N)=O)c1-c1ccc(F)cc1	–	3.88 µM
CCOC(=O)c1cnc(SCC(=O)Nc2sc(C)c(C)c2C#N)nc1N	44.3 µM	2.54 µM
Cc1sc(NC(=O)CSc2nnc(N3CCOCC3)o2)c(C#N)c1-c1ccc(F)cc1	–	16.8 µM
